# Measurements: PMC5003785, “An unusual UMP C-5 methylase in nucleoside antibiotic polyoxin biosynthesis” (Protein & Cell, 2016)
# T1: ThyX (Streptomyces asoensis, UniProt M1ETU3)
# T1 construct: gene thyX_2; recombinant
# T1 sequence (M1ETU3 1-246): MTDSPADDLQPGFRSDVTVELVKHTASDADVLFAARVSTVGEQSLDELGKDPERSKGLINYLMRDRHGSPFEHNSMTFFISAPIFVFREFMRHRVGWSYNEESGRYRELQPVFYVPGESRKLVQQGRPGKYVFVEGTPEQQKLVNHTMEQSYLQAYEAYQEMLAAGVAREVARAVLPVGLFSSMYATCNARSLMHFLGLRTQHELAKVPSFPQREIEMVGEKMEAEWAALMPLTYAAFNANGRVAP
# Key:
# [1] = molecular target: T2, PolB (Streptomyces asoensis, UniProt C1IC19); assay: crystal structure; type: binding
# T2 construct: N-terminal His6-tagged, expressed in E. coli BL21(DE3); FAD-containing; homotetramer
# [2] = molecular target: T3, SVIThyX2 (Streptomyces viridochromogenes, UniProt D9X6S9); assay: LC-MS methylation assay; type: biochemical; conditions: NADPH, CH2H4folate; 50 mmol/L Tris-HCl pH 8.0
# T3 construct: gene thyX
# T3 sequence (D9X6S9 entry or part of it): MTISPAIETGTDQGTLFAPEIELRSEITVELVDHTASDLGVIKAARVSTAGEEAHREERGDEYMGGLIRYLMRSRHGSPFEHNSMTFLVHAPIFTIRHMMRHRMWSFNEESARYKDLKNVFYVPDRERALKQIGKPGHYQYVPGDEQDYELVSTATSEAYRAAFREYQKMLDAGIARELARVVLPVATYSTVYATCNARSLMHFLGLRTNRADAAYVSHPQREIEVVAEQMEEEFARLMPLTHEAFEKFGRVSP
# [3] = molecular target: T1, ThyX; assay: LC-MS methylation assay; type: biochemical; conditions: NADPH, CH2H4folate; 50 mmol/L Tris-HCl pH 8.0
# [4] = molecular target: PolB from S. cacaoi (UMP C-5 methylase with thymidylate synthase activity) (S. cacaoi); assay: crystal structure; apo-PolB, space group P2(1), two tetramers in the asymmetric unit; 17% PEG4000, 0.2 mol/L Li2SO4, 0.1 mol/L Tris-HCl pH 8.5, 20°C
# [5] = molecular target: PolB from S. cacaoi (UMP C-5 methylase with thymidylate synthase activity) (S. cacaoi); assay: crystal structure; PolB with 4 mmol/L 5-Br dUMP; 1.4 mol/L sodium acetate, 0.1 mol/L sodium cacodylate pH 6.5, 20°C
# [6] = substrate: O=c1ccn([C@@H]2O[C@H](COP(=O)(O)O)[C@@H](O)[C@H]2O)c(=O)[nH]1; assay: methylation kinetics; type: biochemical, Streptomyces asoensis; conditions: NADPH and CH2H4folate co-substrates, assay buffer 50 mmol/L Tris-HCl pH 8.0
# [7] = substrate: O=c1ccn([C@H]2C[C@H](O)[C@@H](COP(=O)(O)O)O2)c(=O)[nH]1; assay: methylation kinetics; type: biochemical, Streptomyces asoensis; conditions: NADPH and CH2H4folate co-substrates, assay buffer 50 mmol/L Tris-HCl pH 8.0
molecule,measurement,setting,value
O=c1[nH]c(=O)n([C@@H]2O[C@H](COP(=O)(O)O)[C@@H](O)[C@H]2O)cc1Br [5-Br UMP],crystal structure,"[1]; 1.76 Å, substrate analog in active site",structures in complex with substrate analogs 5-Br dUMP and 5-Br UMP
O=c1[nH]c(=O)n([C@H]2C[C@H](O)[C@@H](COP(=O)(O)O)O2)cc1Br [5-Br dUMP],crystal structure,"[1]; 2.28 Å, substrate analog in active site, stacked on FAD isoalloxazine",structures in complex with substrate analogs 5-Br dUMP and 5-Br UMP
Cc1cc2nc3c(=O)[nH]c(=O)nc-3n(C[C@H](O)[C@H](O)[C@H](O)COP(=O)(O)OP(=O)(O)OC[C@H]3O[C@@H](n4cnc5c(N)ncnc54)[C@H](O)[C@@H]3O)c2cc1C [FAD],crystal structure,[1]; bound flavin in the 5-Br dUMP complex,5-Br dUMP poses strong π-π interaction with the isoalloxazine moiety of FAD
O=c1ccn([C@@H]2O[C@H](COP(=O)(O)O)[C@@H](O)[C@H]2O)c(=O)[nH]1 [UMP],LC-MS methylation assay,[2],SVIThyX2 was able to catalyze the methylation for both UMP and dUMP
O=c1ccn([C@H]2C[C@H](O)[C@@H](COP(=O)(O)O)O2)c(=O)[nH]1 [dUMP],LC-MS methylation assay,[3],recombinant S. cacaoi ThyX could catalyze the methylation of dUMP but not UMP
same,LC-MS methylation assay,[2],SVIThyX2 was able to catalyze the methylation for both UMP and dUMP
PolB from S. cacaoi (UMP C-5 methylase with thymidylate synthase activity) (enzyme),stoichiometry N,[4],4
same,stoichiometry N,[5],4
"PolB (Streptomyces asoensis) (protein, N-terminal His6-tagged, expressed in E. coli BL21(DE3); FAD-containing; homotetramer) MESPRIELRSDITVELVDSSASDLAVVKAARVSTAGEDANDELYDGGSTRGLIRYLMRSRHGSPFEHNSMTFLVRAPIFTVRHLMRHRTWSFNEESARYREVGAAFYVPDATRLLRQEGKPGDYRYVGGSTDDHQQVVRSATRAYEVAFEEYQRLLDSGIAREIARLVLPVSTYSVLYATCNARALMHFLSLRTHRPDAAYVSHPQREIEMVAEQMETAWAKLMPVTHEAFTAFGRVSP",Km,[6],19.48 ± 4.15 µmol/L
same,kcat,[6],3.09 ± 0.17 min⁻¹
same,Km,[7],12.96 ± 0.89 µmol/L
same,kcat,[7],1.74 ± 0.05 min⁻¹
